Results reported in patent US20190083420A1, “METHODS OF USING (2R, 6R)-HYDROXYN[…] (2S, 6S)-HYDROXYN[…] THE TREATMENT OF DEPRESSION, ANXIETY, ANHEDONIA, FATIGUE, SUICIDAL IDEATION, AND POST TRAUMATIC STRESS DISORDERS” (The Uinited States of America, as represented by the …, priority 2016, published 2019).

Tests used:
eEF2 = assay: Western blot of synaptoneurosomes, eEF2 phosphorylation; type: in vivo, mice; conditions: for phosphorylation of eEF2: hippocampus, 1 hour and 24 hours post-injection, 10 mg/kg; for eEF2 / phosphorylated eEF2: prefrontal cortex
Description: (§1) To purify synaptoneurosomes, mouse prefrontal cortex or hippocampus were dissected and homogenized in Syn-PER Reagent (ThermoFisher Scientific, Waltham, Mass., USA; Cat #87793) with 1× protease and phosphatase inhibitor cocktail (ThermoFisher Scientific, Waltham, Mass., USA; Cat #78440). The homogenate was centrifuged for 10 min at 1,200×g at 4° C. The supernatant was centrifuged at 15,000×g for 20 min. After centrifugation, the supernatant the pellet (synaptosomal fraction) was re-suspended and sonicated in N-PER Neuronal Protein Extraction Reagent (ThermoFisher Scientific, Waltham, Mass., USA; Cat #87792). For total homogenous tissue lysates, mouse prefrontal cortex or hippocampus were homogenized and sonicated in N-PER Neuronal Protein Extraction Reagent with 1× protease & phosphatase inhibitor cocktail) Protein concentration was determined via the BCA protein assay kit (ThermoFisher Scientific, Waltham, Mass., USA; Cat #23227).
(§2) For western blotting, equal amount of proteins (10-40 μg as optimal for each antibody) for each sample were loaded into NuPage 4-12% Bis-Tris gel for electrophoresis. Nitrocellulose membranes with transferred proteins were blocked with 5% milk in TBST (TBS+0.1% Tween-20) for 1 hour and kept with primary antibodies overnight at 4° C. The following primary antibodies were used: phospho-eEF2 (Cell Signaling Technology, Danvers, Mass., USA; Cat #2331), total eEF2 (Cell Signaling Technology, Danvers, Mass., USA; Cat #2332), phospho-mTOR (Cell Signaling Technology, Danvers, Mass., USA; Cat #2971), total mTOR (Cell Signaling Technology, Danvers, Mass., USA; Cat #2983), GluR1 (Cell Signaling Technology, Danvers, Mass., USA; […]), GluR2 (Cell Signaling Technology, Danvers, Mass., USA; Cat #13607), BDNF (Santa Cruz Biotechnology, Dallas, Tex., USA; Cat # sc-546), and GAPDH (Abcam, Cambridge, Mass., USA; Cat # ab8245). The next day, blots were washed three times in PBST and incubated with horseradish peroxidase conjugated anti-mouse or anti-rabbit secondary antibody (1:5000 to 1:10000) for 1 hour. After final three washes with TBST, bands were detected using enhanced chemiluminescence (ECL) with the Syngene Imaging System (G:Box ChemiXX9). After imaging, the blots then were incubated in the stripping buffer (ThermoFisher Scientific, Waltham, Mass., USA; Cat #46430) for 10-15 min at room temperature followed by three time washes with TBST. The stripped blots were washed in blocking solution for 1 hour and incubated with the primary antibody directed against total levels of the respective protein or GAPDH for loading control. Densitometric analysis of phospho- and total immunoreactive bands for each protein was conducted using Syngene's GenTools software Immunoreactivity was normalized to the saline treated control group for each protein.

[1] = Tissue distribution of ketamine and metabolites (plasma and brain levels); conditions: brain
Description: Mice were euthanized by a 30-sec exposure to 3% isoflurane and decapitated at 10, 30, 60, 240 or 480 minutes following drug administration. Trunk blood was collected in EDTA-containing tubes and centrifuged at 8000 rpm for 6 min (4° C.). Plasma was collected and stored at −80° C. until analysis. Whole brains were simultaneously collected, rinsed with phosphate-buffered saline, immediately frozen in dry ice and stored at −80° C. until analysis.
The concentrations of ketamine and its metabolites in plasma and brain tissue were determined by achiral liquid chromatography-tandem mass spectrometry. For plasma samples, the calibration standards for (R,S)-ketamine, (R,S)-norketamine, (2R,6R;2S,6S)-HNK and (R,S)-DHNK ranged from 10,000 ng/ml to 19 ng/ml. The quantification of (R,S)-ketamine, (R,S)-norketamine, (R,S)-DHNK, and the HNK stereoisomers was accomplished by calculating area ratios using D4-ketamine (10 μl of 10 μg/ml solution) as the internal standard. Whole brains were suspended in 990 μl of water:methanol (3:2, v/v), D4-ketamine (10 μl of 10 μg/ml) added and the resulting mixture homogenized on ice with a polytron homogenizer and centrifuged at 21,000×g for 30 min. The supernatant was collected and processed using 1 ml Oasis HLB solid phase extraction cartridges (Waters Corp., Waltham, Mass.). The cartridges were preconditioned with 1 ml of methanol, followed by 1 ml of water and then 1 ml ammonium acetate [10 mM, pH 9.5]. The supernatants were added to the cartridges, followed by 1 ml of water and the compounds were eluted with 1 ml of methanol. The eluent was transferred to an autosampler vial for analysis. QC standards for the analysis of (R,S)-ketamine, (R,S)-norketamine, (R,S)-DHNK and (2R,6R;2S,6S)-HNK ranged from 10,000 ng/ml to 19 ng/ml, and quantification was accomplished using D4-(R,S)-ketamine as the internal standard. QC standards were prepared daily by adding 10 μl of the appropriate standard solution and 10 μl of internal standard solution (100 ng/ml) to methanol.

BDNF = assay: Western blot of synaptoneurosomes, BDNF levels; type: in vivo, mice; conditions: for mBDNF levels: hippocampus, 24 hours post-administration, 10 mg/kg; for proBDNF / mBDNF levels: prefrontal cortex
Description: as §1, §2

GluR1 and GluR2 = assay: Western blot of synaptoneurosomes, GluR1 and GluR2 levels; type: in vivo, mice
Description: as §1, §2

[2] = listed as (2R,6R)-hydroxynorketamine

| SMILES | phosphorylation of eEF2 (eEF2) | phosphorylation of eEF2 (eEF2; listed as (R,S)-ketamine) | eEF2 / phosphorylated eEF2 (eEF2; listed as (R,S)-KET) | brain levels following ketamine administration, female mice compared to males [1] | mBDNF levels (BDNF) | mBDNF levels (BDNF; listed as (R,S)-ketamine) | proBDNF / mBDNF levels (BDNF) | GluR1 and GluR2 levels in hippocampal synaptoneurosomes (GluR1 and GluR2; 1 hour post-treatment) | GluR1 and GluR2 levels in hippocampal synaptoneurosomes (GluR1 and GluR2; 24 hours post-treatment) | GluR1/GluR2 levels in prefrontal cortex synaptoneurosomes (GluR1 and GluR2; listed as (R,S)-KET) | phosphorylation of eEF2 (eEF2; [2]) | eEF2 / phosphorylated eEF2 (eEF2) | brain hydroxynorketamine levels after administration of (2S,6S)-HNK versus (2R,6R)-HNK [1] | mBDNF levels (BDNF; [2]) | GluR1/GluR2 levels in prefrontal cortex synaptoneurosomes (GluR1 and GluR2) |
| --- | --- | --- | --- | --- | --- | --- | --- | --- | --- | --- | --- | --- | --- | --- | --- |
| CNC1(c2ccccc2Cl)CCCCC1=O (racemic) [ketamine, (R,S)-ketamine, reference compound] | induced a decrease in eEF2 phosphorylation | decrease phosphorylation of eEF2 | did not alter | equivalent levels | increased hippocampal BDNF | increased mBDNF levels | did not alter | neither ketamine nor (2R,6R)-HNK administration altered | both increased GluR1 and GluR2 levels | did not alter synaptoneurosome levels of GluR1/GluR2 | – | – | – | – | – |
| N[C@@]1(c2ccccc2Cl)CCC[C@@H](O)C1=O [(2R,6R)-HNK, (2R,6R)-2-amino-2-(2-chlorophenyl)-6-hydroxycyclohexanone] | – | – | – | – | – | – | did not alter | neither ketamine nor (2R,6R)-HNK administration altered | both increased GluR1 and GluR2 levels | – | decrease phosphorylation of eEF2 | did not alter | do not result from higher brain levels | increased mBDNF levels | did not alter synaptoneurosome levels of GluR1/GluR2 |
